What was measured:
[1] = tested on: C2C12 cells, murine myoblasts; experiment: MTS assay of metabolic activity of viable cells under hypoxia (0.1% O2) with daily adenosine; format: cell-based
Procedure: 500 μL of a cell suspension (C2C12 cells, murine myoblasts) in high glucose Dulbecco's modified Eagle's medium (DMEM, Gibco) containing 10% FBS, 500 U/mL penicillin and 500 μg/mL streptomycin was placed in each well of a 48-well culture plate at a density of 1052 (FIG. 2) and 2105 (FIG. 3) cells/cm^2. Cells were incubated for 24 hr in normoxic conditions (21% O2, 37° C.) prior to placement in a hypoxic chamber. At day 0, the plates designated as the hypoxic group were transferred to the hypoxic chamber (0.1% O2). […] Another group receiving daily doses of adenosine ([…], achieved by serial dilution) was incubated for up to 7 days under hypoxia and then placed back into normoxic conditions without additional supply of adenosine. Adenosine was refreshed by the daily exchange of media in which adenosine was completely dissolved. Media to be used under hypoxia was placed in the hypoxic chamber 24 hr prior to use for deoxygenation down to 2% O2. The metabolic activity of viable cells at each pre-determined time point was assessed using an MTS assay, which measures mitochondrial activity of cells. Adenosine was used with C2C12 at passage 17, the murine myoblast cell lines, because of their relatively high metabolic activity and proliferation rate. […] Based on the microscopic observations of these cell stained with Giemsa, it was not seen that whole population of cells completely reached the state of necrosis up to the latest time point tested, as a few populations of attached cells were still observed. It is expected that those remaining cells eventually die. […] The effect of dose was also evaluated on a degree of cellular activity (FIG. 3). […] Based on this outcome, the minimum effective concentration of adenosine appears to be about 1 mM under this experimental condition. The reason for 1 mM treated cells not declining up to the duration tested may potentially have been the lower starting number of cells. […] Finally, the long term effect of adenosine was tested on resuming its proliferation after its supply is stopped. The duration tested under the effect of adenosine was 22 days, as the angiogenesis process is known to take 2-3 weeks (Cotton, 1996, Trends Biotechnol, 14(5):158-62; […] et al., 1996, Biomaterials, 17(3):277-84) for completion.

muscle tissue = experiment: adenosine injected into muscle tissue; format: in vivo
From the text: Adenosine, a nucleoside known for its function as an energy transferring molecule, is also known to function as a modulator of hypoxia-induced ion-channel arrest, which eventually leads to lowering of ATP consumption, and thus oxygen demand. Moreover, it is also known to stimulate angiogenesis. Thus, the present invention provides for the application of adenosine to cell-seeded scaffolds under the hypoxic condition to improve cell survival rate via the downregulation of metabolic rate, and thus lowering oxygen demand and consumption. As contemplated herein, agonists to adenosine may also be used in a similar manner to lower the oxygen demand of cells and tissues. […] Adenosine may be administered alone as a composition or within a formulation, as would be understood by those skilled in the art.

Nc1ncnc2c1ncn2[C@@H]1O[C@H](CO)[C@@H](O)[C@H]1O [adenosine]
cellular metabolic activity pattern at 1 mM adenosine ([1]; 1 mM adenosine, hypoxia, FIG. 3): showed a similar pattern with the cells grown in the hypoxic condition without supply of adenosine | long term effect: resuming proliferation after adenosine supply is stopped ([1]; 22 days under the effect of adenosine, various doses, FIG. 4): still demonstrated the ability to restore its normal proliferation rate | cellular (metabolic) activity under hypoxic conditions ([1]; C2C12 passage 17, hypoxia 0.1% O2, daily adenosine up to 7 days, FIG. 2): maintained a steady state of cellular activity | effect of dose on degree of cellular activity ([1]; adenosine dose increased from 1 to 10 mM, hypoxic conditions, FIG. 3): an escalation of steady hypometabolic state was maintained under hypoxic conditions | resumption of normal metabolic activity after removal of adenosine ([1]; adenosine removed at day 7, cells returned to normoxic conditions, FIG. 2): resumed their normal metabolic activity two days after adenosine was removed at day 7 | minimum effective concentration of adenosine ([1]; hypoxic conditions, dose study, FIG. 3): about 1 mM | cellular viability and tissue architecture (muscle tissue): preservation of cellular viability and tissue architecture

— US20130281400A1, “Metabolic Downregulation for Cell Survival” (Wake Forest University Health Sciences, priority 2010, published 2013)
